Experimental data taken from PubChem BioAssay (NCI).
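Here, GI50 denotes the concentration required for 50% inhibition of growth. Definition used: TGI = concentration required for complete inhibition of growth.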

Legend:
Assay in all cases: DTP human tumour cell line panel, 384-well format
[1] = tested on: EKVX NSCLC
[2] = tested on: MDA-MB-468 breast
[3] = tested on: NCI-H522 lung
[4] = tested on: KM12 colon
[5] = tested on: SF-268 CNS
[6] = tested on: SNB-19 CNS
[7] = tested on: PC-3 prostate
[8] = tested on: SK-MEL-2 melanoma
[9] = tested on: SK-MEL-28 melanoma
[10] = tested on: HOP-62 NSCLC
[11] = tested on: SF-295 CNS
[12] = tested on: SN12C renal
[13] = tested on: OVCAR-3 ovarian
[14] = tested on: SK-MEL-5 melanoma
[15] = tested on: OVCAR-4 ovarian
[16] = tested on: COLO 205 colon
[17] = tested on: MCF7 breast
[18] = tested on: HL-60(TB) leukemia
[19] = tested on: HOP-92 NSCLC
[20] = tested on: IGROV1 ovarian
[21] = tested on: NCI-H322M lung
[22] = tested on: U251 glioblastoma
[23] = tested on: SF-539 CNS
[24] = tested on: HS 578T breast
[25] = tested on: SR leukemia
[26] = tested on: 786-0 renal
[27] = tested on: TK-10 renal
[28] = tested on: HT29 colon
[29] = tested on: MOLT-4 leukemia
[30] = tested on: SNB-75 CNS
[31] = tested on: K-562 leukemia
[32] = tested on: T-47D breast
[33] = tested on: UO-31 renal
[34] = tested on: UACC-62 melanoma
[35] = tested on: SW-620 colon
[36] = tested on: SK-OV-3 ovarian
[37] = tested on: DU-145 prostate
[38] = tested on: OVCAR-5 ovarian
[39] = tested on: CAKI-1 renal
[40] = tested on: A498 renal
[41] = tested on: OVCAR-8 ovarian
[42] = tested on: NCI-H226 lung
[43] = tested on: MALME-3M melanoma
[44] = tested on: RXF 393 renal
[45] = tested on: ACHN renal
[46] = tested on: M14 melanoma
[47] = tested on: NCI-H460 NSCLC
[48] = tested on: UACC-257 melanoma
[49] = tested on: BT-549 breast
[50] = tested on: MDA-MB-231 breast
[51] = tested on: MDA-MB-435 melanoma
[52] = tested on: HCT-15 colon
[53] = tested on: HCT-116 colon
[54] = tested on: A549 NSCLC
[55] = tested on: NCI-H23 lung

How did the GI50 [1] turn out when Cc1cc(C)c(CNC(=O)c2cc(Cl)c3c(c2C)O[C@@](C)(C2CCC(N(C)C)CC2)O3)c(=O)[nH]1 (stereo not given in full) was run?
Its GI50 is 48.9 µM.

And the TGI [1]?
Its TGI is greater than 100 µM.

And the GI50 [2]?
Its GI50 is 24.9 µM.

And the TGI [2]?
The TGI was 73.2 µM.

What about the GI50 [3] of the same compound?
The GI50 was greater than 100 µM.

What about the TGI [3] of the same compound?
The TGI was greater than 100 µM.

And the GI50 [4]?
Its GI50 is 59.4 µM.

What about the TGI [4] of the same compound?
The TGI was greater than 100 µM.

And the GI50 [5]?
Its GI50 is 45.4 µM.

What about the TGI [5] of the same compound?
The TGI was greater than 100 µM.

And the GI50 [6]?
Its GI50 is greater than 100 µM.

And the TGI [6]?
Its TGI is greater than 100 µM.

What about the GI50 [7] of the same compound?
Its GI50 is 56.3 µM.

What about the TGI [7] of the same compound?
The TGI was greater than 100 µM.

What about the GI50 [8] of the same compound?
The GI50 was 17.4 µM.

What about the TGI [8] of the same compound?
Its TGI is 45.6 µM.

And the GI50 [9]?
The GI50 was 83 µM.

What about the TGI [9] of the same compound?
Its TGI is greater than 100 µM.

What about the GI50 [10] of the same compound?
Its GI50 is greater than 100 µM.

What about the TGI [10] of the same compound?
The TGI was greater than 100 µM.

And the GI50 [11]?
The GI50 was 35.1 µM.

And the TGI [11]?
Its TGI is greater than 100 µM.

What about the GI50 [12] of the same compound?
Its GI50 is 76.6 µM.

And the TGI [12]?
The TGI was greater than 100 µM.

What about the GI50 [13] of the same compound?
The GI50 was 72 µM.

And the TGI [13]?
The TGI was greater than 100 µM.

What about the GI50 [14] of the same compound?
The GI50 was 17.6 µM.

What about the TGI [14] of the same compound?
The TGI was 37.2 µM.

What about the GI50 [15] of the same compound?
Its GI50 is greater than 100 µM.

What about the TGI [15] of the same compound?
The TGI was greater than 100 µM.

What about the GI50 [16] of the same compound?
Its GI50 is greater than 100 µM.

What about the TGI [16] of the same compound?
The TGI was greater than 100 µM.

And the GI50 [17]?
The GI50 was 44.9 µM.

And the TGI [17]?
Its TGI is greater than 100 µM.

What about the GI50 [18] of the same compound?
The GI50 was 15.4 µM.

What about the TGI [18] of the same compound?
Its TGI is 37.6 µM.

What about the GI50 [19] of the same compound?
The GI50 was 40 µM.

And the TGI [19]?
The TGI was greater than 100 µM.

And the GI50 [20]?
Its GI50 is 51 µM.

What about the TGI [20] of the same compound?
Its TGI is greater than 100 µM.

And the GI50 [21]?
Its GI50 is greater than 100 µM.

What about the TGI [21] of the same compound?
Its TGI is greater than 100 µM.

What about the GI50 [22] of the same compound?
The GI50 was 72.9 µM.

And the TGI [22]?
Its TGI is greater than 100 µM.

And the GI50 [23]?
Its GI50 is 35 µM.

And the TGI [23]?
The TGI was greater than 100 µM.

And the GI50 [24]?
The GI50 was 13.8 µM.

What about the TGI [24] of the same compound?
The TGI was 32.7 µM.

What about the GI50 [25] of the same compound?
Its GI50 is 19.8 µM.

And the TGI [25]?
Its TGI is 34.1 µM.

What about the GI50 [26] of the same compound?
The GI50 was 16.1 µM.

And the TGI [26]?
The TGI was 32 µM.

What about the GI50 [27] of the same compound?
The GI50 was 33.4 µM.

And the TGI [27]?
The TGI was greater than 100 µM.

What about the GI50 [28] of the same compound?
The GI50 was 21.3 µM.

What about the TGI [28] of the same compound?
The TGI was 48.7 µM.

What about the GI50 [29] of the same compound?
Its GI50 is 29.2 µM.

And the TGI [29]?
The TGI was 77.5 µM.

And the GI50 [30]?
The GI50 was 18.6 µM.

What about the TGI [30] of the same compound?
Its TGI is 60.3 µM.

What about the GI50 [31] of the same compound?
Its GI50 is 14.9 µM.

And the TGI [31]?
Its TGI is 30.5 µM.

And the GI50 [32]?
The GI50 was greater than 100 µM.

What about the TGI [32] of the same compound?
The TGI was greater than 100 µM.

What about the GI50 [33] of the same compound?
Its GI50 is 63.1 µM.

What about the TGI [33] of the same compound?
Its TGI is greater than 100 µM.

What about the GI50 [34] of the same compound?
Its GI50 is 32.6 µM.

And the TGI [34]?
The TGI was greater than 100 µM.

What about the GI50 [35] of the same compound?
Its GI50 is greater than 100 µM.

What about the TGI [35] of the same compound?
Its TGI is greater than 100 µM.

And the GI50 [36]?
The GI50 was greater than 100 µM.

What about the TGI [36] of the same compound?
Its TGI is greater than 100 µM.

And the GI50 [37]?
The GI50 was 81.1 µM.

And the TGI [37]?
Its TGI is greater than 100 µM.

And the GI50 [38]?
The GI50 was greater than 100 µM.

What about the TGI [38] of the same compound?
The TGI was greater than 100 µM.

What about the GI50 [39] of the same compound?
The GI50 was 19.1 µM.

What about the TGI [39] of the same compound?
The TGI was 39.2 µM.

What about the GI50 [40] of the same compound?
The GI50 was 20.4 µM.

And the TGI [40]?
The TGI was 37.1 µM.

And the GI50 [41]?
The GI50 was greater than 100 µM.

And the TGI [41]?
Its TGI is greater than 100 µM.

What about the GI50 [42] of the same compound?
The GI50 was 44.3 µM.

And the TGI [42]?
Its TGI is greater than 100 µM.

What about the GI50 [43] of the same compound?
Its GI50 is 25.1 µM.

What about the TGI [43] of the same compound?
Its TGI is 56.9 µM.

And the GI50 [44]?
Its GI50 is 7.55 µM.

And the TGI [44]?
Its TGI is 21.2 µM.

What about the GI50 [45] of the same compound?
The GI50 was greater than 100 µM.

And the TGI [45]?
Its TGI is greater than 100 µM.

What about the GI50 [46] of the same compound?
The GI50 was 38.2 µM.

And the TGI [46]?
Its TGI is greater than 100 µM.

What about the GI50 [47] of the same compound?
Its GI50 is 37.2 µM.

And the TGI [47]?
The TGI was greater than 100 µM.

And the GI50 [48]?
Its GI50 is 22.7 µM.

What about the TGI [48] of the same compound?
The TGI was 51.8 µM.

And the GI50 [49]?
The GI50 was 19 µM.

What about the TGI [49] of the same compound?
The TGI was 45 µM.

And the GI50 [50]?
Its GI50 is greater than 100 µM.

And the TGI [50]?
The TGI was greater than 100 µM.

And the GI50 [51]?
The GI50 was 73.4 µM.

And the TGI [51]?
Its TGI is greater than 100 µM.

What about the GI50 [52] of the same compound?
Its GI50 is 71.1 µM.

What about the TGI [52] of the same compound?
The TGI was greater than 100 µM.

What about the GI50 [53] of the same compound?
The GI50 was 38.6 µM.

And the TGI [53]?
The TGI was greater than 100 µM.

And the GI50 [54]?
The GI50 was 76.2 µM.

What about the TGI [54] of the same compound?
The TGI was greater than 100 µM.

What about the GI50 [55] of the same compound?
The GI50 was 46.8 µM.

What about the TGI [55] of the same compound?
Its TGI is greater than 100 µM.
